Patent publication EP4810038A1, “METHOD FOR TREATING ALK-POSITIVE OR ROS1-POSITIVE NON-SMALL CELL LUNG CANCER” (Shenzhen TargetRx Co., Ltd., priority 2023, dated 2025)
Several values for one entry are separate records, joined by “and”; a condition that tells them apart may be missing. Identical values can stand only once. Entries after “also recorded” stand apart in the source; their conditions may differ.

Tested on: ALK-positive advanced NSCLC
Assay: Phase I clinical trial, indication expansion phase: efficacy in ALK-positive patients (group A cohort 1: prior crizotinib only; cohort 2: prior second-generation ALK inhibitor; group C: ALK inhibitor naive)
Assay type: in vivo, human
Protocol: The anti-tumor efficacy is evaluated according to RECIST version 1.1. For patients initially evaluated as having a complete response (CR) or partial response (PR), efficacy should be confirmed at least 4 weeks later. In the patients with asymptomatic central nervous system (CNS) metastases, in addition to evaluating 5 extracranial target lesions, up to 5 intracranial target lesions will also be evaluated. The specific indicators are as follows:
"ORR" includes CR and PR, and is defined as the proportion of patients who achieve complete response or partial response.
"IC-ORR" includes CR or PR for confirmed intracranial lesions, and is defined as the proportion of the patients with complete response or partial response of intracranial lesions among the patients with intracranial lesions.
"DCR" is defined as the proportion of the patients who achieve response (PR+CR) and stable disease (SD) after a treatment.
"IC-DCR" is defined as the proportion of the patients who achieve intracranial response (PR+CR), intracranial stable disease (SD), and […] after a treatment among the patients with intracranial lesions.
"DOR" is defined as the time from the first assessment of CR or PR to progressive disease or death, and is only applicable to the patients who achieve response.
"IC-DOR" is defined as the time from the first assessment of intracranial CR or intracranial PR to progressive disease or death, and is only applicable to the patients whose intracranial lesions achieve response.
"TTR" is defined as the time from patient enrollment (first dose of investigational drug) to tumor response (CR/PR), based on the patients with objective response.
"IC-TTR" is defined as the time from patient enrollment (first dose of investigational drug) to intracranial tumor response (IC-CR/PR), based on the patients with intracranial objective response.
"PFS" is defined as the time from the first administration of the investigational drug to progressive disease (PD) or death from any cause, whichever comes first.
In the indication expansion phase, an appropriate administration regimen was determined based on the safety, tolerability, PK and efficacy data from the dose escalation phase and dose expansion phase, and the expansion was performed within the target population.
The result of a pregnancy test conducted ≤7 days prior to the first administration of the investigational drug must be negative for the women of childbearing age.

[1] = A cohort 2, prior 3 or more second-generation ALK inhibitors, chemotherapy (N=11)
[2] = A cohort 2, prior 3 or more second-generation ALK inhibitors, no chemotherapy (N=7)
[3] = A cohort 2, prior one second-generation ALK inhibitor, chemotherapy (N=14)
[4] = A cohort 2, prior one second-generation ALK inhibitor, no chemotherapy (N=26)
[5] = A cohort 2, prior two second-generation ALK inhibitors, chemotherapy (N=15)
[6] = A cohort 2, prior two second-generation ALK inhibitors, no chemotherapy (N=24)
[7] = intracranial measurable lesions, Group A, cohort 1 (n=4)
[8] = intracranial measurable lesions, Group A, cohort 2 (n=27)
[9] = intracranial measurable lesions, Group C (n=8)
[10] = intracranial measurable lesions, In total (ALK-positive) (n=52)
[11] = systemic, Group A, cohort 1 (n=14)
[12] = systemic, Group A, cohort 2 (n=97)
[13] = systemic, In total (ALK-positive) (n=144)

[2H]C([2H])([2H])n1nc2c(c1C#N)-c1cnc(N)c(c1)O[C@H](C)c1cc(F)ccc1C(=O)N(C)C2 [compound A, (10R)-7-amino-12-fluoro-2-(methyl-d3)-10,16-dimethyl-15-oxo-10,15,16,17-tetrahydro-2H-8,4-(metheno)pyrazolo[4,3-h][2,5,11]benzoxadiazacyclotetradecine-3-carbonitrile]
ORR (14 patients previously received crizotinib with or without chemotherapy): 71.4% | ORR (33 ALK TKI-treatment naive patients): 84.8% | overall ORR (97 patients previously received a second-generation TKI): 39.2% | BOR CR [1]: 0 n (%) | BOR NE [1]: 0 n (%) | BOR PD [1]: 1 (9.1) n (%) | BOR PR [1]: 3 (27.3) n (%) | BOR SD [1]: 7 (63.6) n (%) | Confirmed ORR (95% CI) [1]: 3 (27.3) (6.0, 61.0) n (%) | DCR (95% CI) [1]: 10 (90.9) (58.7, 99.8) n (%) | Median TTR (range) [1]: 1.35 (1.28, 7.00) months | BOR CR [2]: 0 n (%) | BOR NE [2]: 1 (14.3) n (%) | BOR PD [2]: 0 n (%) | BOR PR [2]: 3 (42.9) n (%) | BOR SD [2]: 3 (42.9) n (%) | Confirmed ORR (95% CI) [2]: 3 (42.9) (9.9, 81.6) n (%) | DCR (95% CI) [2]: 6 (85.7) (42.1, 99.6) n (%) | Median TTR (range) [2]: 1.35 (1.35, 1.45) months | BOR CR [3]: 0 n (%) | BOR NE [3]: 1 (7.1) n (%) | BOR PD [3]: 4 (28.6) n (%) | BOR PR [3]: 6 (42.9) n (%) | BOR SD [3]: 3 (21.4) n (%) | Confirmed ORR (95% CI) [3]: 6 (42.9) (17.7, 71.1) n (%) | DCR (95% CI) [3]: 9 (64.3) (35.1, 87.2) n (%) | Median TTR (range) [3]: 2.07 (1.35, 6.90) months | BOR CR [4]: 0 n (%) | BOR NE [4]: 0 n (%) | BOR PD [4]: 6 (23.1) n (%) | BOR PR [4]: 9 (34.6) n (%) | BOR SD [4]: 11 (42.3) n (%) | Confirmed ORR (95% CI) [4]: 9 (34.6) (17.2, 55.7) n (%) | DCR (95% CI) [4]: 20 (76.9) (56.4, 91.0) n (%) | Median TTR (range) [4]: 1.38 (1.28, 6.80) months | BOR CR [5]: 0 n (%) | BOR NE [5]: 0 n (%) | BOR PD [5]: 2 (13.3) n (%) | BOR PR [5]: 6 (40.0) n (%) | BOR SD [5]: 7 (46.7) n (%) | Confirmed ORR (95% CI) [5]: 6 (40.0) (16.3, 67.7) n (%) | DCR (95% CI) [5]: 13 (86.7) (59.5, 98.3) n (%) | Median DOR (95% CI) [5]: 12.45 (5.39, -) months | Median TTR (range) [5]: 1.40 (1.31, 2.79) months | BOR CR [6]: 0 n (%) | BOR NE [6]: 0 n (%) | BOR PD [6]: 3 (12.5) n (%) | BOR PR [6]: 11 (45.8) n (%) | BOR SD [6]: 10 (41.7) n (%) | Confirmed ORR (95% CI) [6]: 11 (45.8) (25.6, 67.2) n (%) | DCR (95% CI) [6]: 21 (87.5) (67.6, 97.3) n (%) | Median DOR (95% CI) [6]: 12.48 (2.76, -) months | Median TTR (range) [6]: 1.38 (1.35, 9.72) months | intracranial ORR (ALK TKI-naive, 8 patients with measurable CNS lesions at baseline): 75% | median PFS (cohort 2 of group A, FAS, as of April 17, 2024): 6.87 months | BOR CR [7]: 1 n (%) and 1 (25.0) n (%) | BOR NE [7]: 0 n (%) | BOR PD [7]: 0 n (%) | BOR PR [7]: 1 n (%) and 1 (25.0) n (%) | BOR SD [7]: 2 (50.0) n (%) | Confirmed ORR (95% CI) [7]: 2 (50.0) (6.8, 93.2) n (%) | DCR (95% CI) [7]: 4 (100) (39.8, 100.0) n (%) | Median DOR (95% CI) [7]: not reached; also recorded: NR (NR, NR) | Median TTR (range) [7]: 1.36 months and 1.36 (1.35, 1.38) months | BOR CR [8]: 5 n (%) and 5 (18.5) n (%) | BOR NE [8]: 1 (3.7) n (%) | BOR PD [8]: 0 n (%) | BOR PR [8]: 14 n (%) and 14 (51.9) n (%) | BOR SD [8]: 7 (25.9) n (%) | Confirmed ORR (95% CI) [8]: 19 (70.4) (49.8, 86.2) n (%) | DCR (95% CI) [8]: 26 (96.3) (81.0, 99.9) n (%) | Median DOR (95% CI) [8]: 17.97 months and 17.97 (6.64, NR) months | Median TTR (range) [8]: 1.41 months and 1.41 (1.31, 9.72) months | BOR CR [9]: 0 n (%) | BOR NE [9]: 0 n (%) | BOR PD [9]: 0 n (%) | BOR PR [9]: 6 n (%) and 6 (75.0) n (%) | BOR SD [9]: 2 (25.0) n (%) | Confirmed ORR (95% CI) [9]: 6 (75.0) (34.9, 96.8) n (%) | DCR (95% CI) [9]: 8 (100) (63.1, 100) n (%) | Median DOR (95% CI) [9]: not reached; also recorded: NR (4.17, NR) | Median TTR (range) [9]: 1.41 months and 1.41 (1.35, 1.45) months | BOR CR [10]: 6 (11.5) n (%) | BOR NE [10]: 2 (3.8) n (%) | BOR PD [10]: 1 (1.9) n (%) | BOR PR [10]: 24 (46.2) n (%) | BOR SD [10]: 19 (36.5) n (%) | Confirmed ORR (95% CI) [10]: 30 (57.7) (43.2, 71.3) n (%) | DCR (95% CI) [10]: 49 (94.2) (84.1, 98.8) n (%) | Median DOR (95% CI) [10]: 17.97 (17.97, -) months | Median TTR (range) [10]: 1.40 (1.31, 9.72) months | intracranial ORR (prior crizotinib, four patients with measurable CNS lesions at baseline): 50.0% | IC-ORR (prior second-generation TKI, 27 patients with measurable CNS lesions at baseline): 70.4% | BOR CR [11]: 0 n (%) | BOR NE [11]: 0 n (%) | BOR PD [11]: 0 n (%) | BOR PR [11]: 10 n (%) and 10 (71.4) n (%) | BOR SD [11]: 4 n (%) and 4 (28.6) n (%) | Confirmed ORR (95% CI) [11]: 10 (71.4) (41.9, 91.6) n (%) | DCR (95% CI) [11]: 14 (100) (76.8, 100.0) n (%) | Median DOR (95% CI) [11]: not reached; also recorded: NR (5.585, NR) | Median TTR (range) [11]: 2.71 months and 2.71 (1.25, 9.66) months | BOR CR [12]: 0 n (%) | BOR NE [12]: 2 (2.1) n (%) | BOR PD [12]: 16 (16.5) n (%) | BOR PR [12]: 38 (39.2) n (%) | BOR SD [12]: 41 (42.3) n (%) | Confirmed ORR (95% CI) [12]: 38 (39.2) (29.4, 49.6) n (%) | DCR (95% CI) [12]: 79 (81.4) (72.3, 88.6) n (%) | Median DOR (95% CI) [12]: 12.48 months and 12.48 (12.45, NR) months | Median TTR (range) [12]: 1.38 months and 1.38 (1.28, 9.72) months | BOR CR (systemic, Group C (n=33)): 0 n (%) | BOR NE (systemic, Group C (n=33)): 0 n (%) | BOR PD (systemic, Group C (n=33)): 1 (3.0) n (%) | BOR PR (systemic, Group C (n=33)): 28 n (%) and 28 (84.8) n (%) | BOR SD (systemic, Group C (n=33)): 4 n (%) and 4 (12.1) n (%) | Confirmed ORR (95% CI) (systemic, Group C (n=33)): 28 (84.8) (68.1, 94.9) n (%) | DCR (95% CI) (systemic, Group C (n=33)): 32 (97.0) (84.2, 99.9) n (%) | Median DOR (95% CI) (systemic, Group C (n=33)): not reached; also recorded: NR (9.69, NR) | Median TTR (range) (systemic, Group C (n=33)): 1.35 months and 1.35 (1.12, 4.21) months | BOR CR [13]: 0 n (%) | BOR NE [13]: 5 (2.9) n (%) | BOR PD [13]: 21 (12.3) n (%) | BOR PR [13]: 84 (49.1) n (%) | BOR SD [13]: 61 (35.7) n (%) | Confirmed ORR (95% CI) [13]: 84 (49.1) (41.4, 56.9) n (%) | DCR (95% CI) [13]: 145 (84.8) (78.5, 89.8) n (%) | Median DOR (95% CI) [13]: 12.48 (12.45, -) months | Median TTR (range) [13]: 1.38 (1.12, 13.96) months
